Experiments:
γ-CaCAmut [1] = biological target: T1, γ-CaCAmut (Caloramator australicus, UniProt G0V3M6, V46E/T67E/G68E/Y159N, form not given); conditions: pNPA as substrate, 25°C; 1 mM inhibitor
T1 construct: gene CAAU_0066

γ-CaCAmut [2] = biological target: T1, γ-CaCAmut; assay: spectrophotometric p-nitrophenol release at […] nm; type: biochemical; conditions: 0.1 M KH2PO4, pH 8.0, 25°C; 0.4-3.5 mM p-NPA; esterase activity

T1 sequence (G0V3M6 1-167 G68E/T67E/V46E/Y159N limits assumed): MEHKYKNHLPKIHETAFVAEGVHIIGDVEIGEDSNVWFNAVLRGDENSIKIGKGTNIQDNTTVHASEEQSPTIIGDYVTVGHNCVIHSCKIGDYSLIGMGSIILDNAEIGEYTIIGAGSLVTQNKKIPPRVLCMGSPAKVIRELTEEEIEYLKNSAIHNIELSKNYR

SMILES | % inhibition at 1 mM (γ-CaCAmut [1]) | Km (γ-CaCAmut [2]) [µM]
Nc1ccc(S(N)(=O)=O)cc1 [sulfanilamide] | Inhibition of γ‐CaCAmut by three common diagnostic CA inhibitors (sulfanilamide, azide, and EDTA) | 
CC(=O)Oc1ccc([N+](=O)[O-])cc1 [p-nitrophenyl acetate] |  | 960 ± 50

From publication PMC12648627, “Structural and functional characterization of a metagenomically derived γ‐type carbonic anhydrase and its engineering into a hyperthermostable esterase” (Protein Science : A Publication of the Protein Society, 2025)
